Assay results: patent publication US11053253B2, “Macrocyclic compounds for treatment of medical disorders” (Achillion Pharmaceuticals, Inc., priority 2017, dated 2021)

These molecules were tested against Human Factor D (Homo sapiens (Human), UniProt P00746) (assay: Human Factor D Assay). Details: Human Factor D 80 nM, substrate Z-L-Lys-SBzl, DTNB, A405; read-out: IC50 (Stars).
Assay type: biochemical
How it was run: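 Serum-purified enzyme (80 nM final) was preincubated with compound 5 min at room temperature in 50 mM Tris, 1M NaCl, pH 7.5. Z-L-Lys-SBzl and DTNB ([…] each, final) were added and A405 followed every 30 s for 30 min; IC50 from nonlinear regression of reaction rates.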

Sequence of Human Factor D (P00746 26-253): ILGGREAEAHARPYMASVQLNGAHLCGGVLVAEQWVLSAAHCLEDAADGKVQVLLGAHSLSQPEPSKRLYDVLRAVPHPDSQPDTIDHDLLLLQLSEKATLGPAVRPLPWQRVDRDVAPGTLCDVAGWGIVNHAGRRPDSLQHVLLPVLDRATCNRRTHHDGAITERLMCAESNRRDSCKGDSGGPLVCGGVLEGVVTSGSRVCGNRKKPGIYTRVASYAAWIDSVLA

Row | Compound | IC50
1 | CC(=O)c1nn2c3c(cc(-c4cnc(C)nc4)cc13)CCCCC=CCOC[C@@]13C[C@@H](C(=O)Nc4nc(C(F)(F)F)ccc4C)N(C(=O)C2)[C@@H]1C3 [Compound T-101] | < 1 µM
2 | CC(=O)c1nn(CC(=O)N2[C@H]3C[C@@]4(CNC(=O)C(C)(C)CCCCCc5ccc(Br)nc5NC3=O)C[C@@H]24)c2cnc(-c3cnc(C)nc3)cc12 [Compound T-180] | < 1 µM
3 | CC(=O)c1nn2c3c(cc(-c4cnc5cc(C6CC6)nn5c4)cc13)CCCCCCC(=O)NC[C@@]13C[C@@H](C(=O)Nc4nc(C(F)(F)F)ccc4C)N(C(=O)C2)[C@@H]1C3 [Compound T-258] | < 1 µM
4 | CC(=O)c1nn(CC(=O)N2[C@H]3C[C@@]4(CNC(=O)C(C)(C)C=CCOCc5ccc(C(F)(F)F)nc5NC3=O)C[C@@H]24)c2ccc(-c3cnc(C)nc3)cc12 [Compound T-235] | < 1 µM
5 | CC(=O)c1nn2c3c(cc(-c4cnc(C)nc4)cc13)CC=CCCCC(=O)NC[C@@]13C[C@@H](C(=O)Nc4cc(C)c(F)c(Br)n4)N(C(=O)C2)[C@@H]1C3 [Compound T-217] | < 1 µM
6 | CC(=O)c1nn(CC(=O)N2C[C@@]3(F)COCCCCCCCCc4ccc(Br)nc4NC(=O)[C@@H]2C3)c2ccc(-c3cnc(C)nc3)cc12 [Compound T-194] | < 1 µM
7 | CC(=O)c1nn2c3c(cc(-c4cnc(C)nc4)cc13)CC=CCCCC(=O)NC[C@]1(F)C[C@@H](C(=O)Nc3nc(C(F)(F)F)ccc3C)N(C1)C(=O)C2 [Compound T-127] | > 10 µM
8 | COc1cc(NC(=O)[C@@H]2C[C@]34CNC(=O)CCCCCCc5cc(-c6cnc(C)nc6)cc6c(C(C)=O)nn(c56)CC(=O)N2[C@@H]3C4)nc(Br)c1F [Compound T-228] | < 1 µM
9 | CC(=O)c1nn2c3c(cc(-c4cnc(C)nc4)cc13)CCCCCCCCOC[C@@]13C[C@@H](C(=O)Nc4nc(Br)ccc4C)N(C(=O)C2)[C@@H]1C3 [Compound T-23, (41R,43S,45S)-13-acetyl-N-(6-bromo-3-methylpyridin-2-yl)-15-(2-methylpyrimidin-5-yl)-3-oxo-11H-6-oxa-42-aza-1(1,7)-indazola-4(2,5)-bicyclo[3.1.0]hexanacyclotetradecaphane-43-carboxamide] | < 1 µM
10 | CC(=O)c1cc2n(n1)CC(=O)N1[C@@H](C[C@@]3(C)C[C@@H]13)C(=O)Nc1nc(Br)ccc1COC/C=C\CCNC2=O [Compound T-15, (18aS,19aR,20aR,Z)-2-acetyl-15-bromo-19a-methyl-6,7,12,17,18a,19,19a,20,20a,23-decahydro-4H-cyclopropa[4,5]pyrrolo[2,1-g]pyrazolo[1,5-k]pyrido[3,2-c][1,5,8,11,14]oxatetraazacyclononadecine-4,18,22(5H,10H)-trione] | > 10 µM
11 | CC(=O)c1nn(CC(=O)N2[C@H]3C[C@@]4(COCC=CCOCc5ccc(Br)nc5NC3=O)C[C@@H]24)c2c(CF)cc(-c3cnc(C)nc3)cc12 [Compound T-77] | < 1 µM
12 | CC(=O)c1nn2c3c(cc(-c4cnc(C)nc4)cc13)CCCCCC(=O)N(C)C[C@@]13C[C@@H](C(=O)Nc4nc(C(F)(F)F)ccc4C)N(C(=O)C2)[C@@H]1C3 [Compound T-125] | < 1 µM
13 | CC(=O)c1nn(CC(=O)N2[C@H]3C[C@@]4(CNC(=O)C(C)(C)CCCCc5ccc(Br)nc5NC3=O)C[C@@H]24)c2ccc(-c3cnc(C)nc3)cc12 [Compound T-183] | < 1 µM
14 | CC(=O)c1nn(CC(=O)N2[C@H]3C[C@@]4(CNC(=O)C(C)(C)CCCCc5ccc(Br)nc5NC3=O)C[C@@H]24)c2cnc(-c3cnc(C)nc3)cc12 [Compound T-181] | < 1 µM
15 | CC(=O)c1nn(CC(=O)N2[C@H]3C[C@]4(C[C@@H]24)CN(C)CCCCC=CCc2ccc(Br)nc2NC3=O)c2c(CF)cc(-c3cnc(C)nc3)cc12 [Compound T-62] | < 1 µM
16 | CC(=O)c1nn2c3c(cc(-c4cnc(C)nc4)cc13)CCCCCCC(=O)NC[C@@]13C[C@@H](C(=O)NCC(F)=C(C)C)N(C(=O)C2)[C@@H]1C3 [Compound T-198] | < 1 µM
17 | CC(=O)c1nn2c3c(cc(-c4cnc(C)nc4)cc13)CCCCCCC(=O)NC[C@@]13C[C@@H](C(=O)NCCOC(F)(F)F)N(C(=O)C2)[C@@H]1C3 [Compound T-208] | < 1 µM
18 | CC(=O)N[C@H]1CC=CCOCc2ccc(Br)nc2NC(=O)[C@@H]2C[C@@]3(CNC1=O)C[C@H]3N2C(=O)Cn1nc(C(C)=O)c2cc(-c3cnc(C)nc3)ccc21 [Compound T-22, N-((41R,43S,45R,8S)-42-(2-(3-acetyl-5-(2-methylpyrimidin-5-yl)-1H-indazol-1-yl)acetyl)-16-bromo-3,7-dioxo-13-oxa-42,2,6-triaza-1(2,3)-pyridina-4(3,5)-bicyclo[3.1.0]hexanacyclotetradecaphan-10-en-8-yl)acetamide] | < 1 µM
19 | CC(=O)c1nn(CC(=O)N2C[C@@]3(F)CNC(=O)CCCCCOCc4ccc(Br)nc4NC(=O)[C@@H]2C3)c2ccc(-c3cnc(C)nc3)cc12 [Compound T-178] | < 1 µM
20 | CC(=O)c1nn(CC(=O)N2[C@H]3C[C@@]4(COCC=CCOCc5ccc(Br)nc5NC3=O)C[C@@H]24)c2c(C)cc(-c3cnc(C)nc3)cc12 [Compound T-192] | < 1 µM
21 | CC(=O)c1nn2c3c(cc(-c4cnc(C)nc4)cc13)CCCCCCC(=O)NC[C@@]13C[C@@H](C(=O)Nc4cccc(OC(F)(F)F)c4F)N(C(=O)C2)[C@@H]1C3 [Compound T-223] | < 1 µM
22 | CC(=O)c1nn2c3c(cc(-c4cnc(C)nc4)cc13)CC=CCCCC(=O)NC[C@@]13C[C@@H](C(=O)Nc4cncc(Br)n4)N(C(=O)C2)[C@@H]1C3 [Compound T-233] | < 1 µM
23 | CC(=O)c1nn2c3c(cc(-c4cnc(C)nc4)cc13)C=CCCCCCN(C)C[C@@]13C[C@@H](C(=O)Nc4nc(Br)ccc4C)N(C(=O)C2)[C@@H]1C3 [Compound T-58] | < 1 µM
24 | CC(=O)c1nn(CC(=O)N2C[C@@]3(F)COCCCCCCCCc4ccc(Br)nc4NC(=O)[C@@H]2C3)c2cnc(-c3cnc(C)nc3)cc12 [Compound T-239] | < 1 µM
25 | CC(=O)c1nn(CC(=O)N2[C@H]3C[C@]4(C[C@@H]24)Cn2cc(nn2)COCc2ccc(Br)nc2NC3=O)c2cnccc12 [Compound T-27, (31R,33S,35R,Z)-32-(2-(3-acetyl-1H-pyrazolo[3,4-c]pyridin-1-yl)acetyl)-66-bromo-11H-8-oxa-32,5-diaza-6(2,3)-pyridina-1(1,4)-triazola-3(5,3)-bicyclo[3.1.0]hexanacyclononaphan-4-one] | < 1 µM
26 | CC(=O)c1nn(CC(=O)N2C3CC34CNC(=O)CCC=CCOCc3ccc(Br)nc3NC(=O)[C@@H]2C4)c2ccc(-c3cnc(C)nc3)cc12 (stereo partly drawn) [Compound T-2, (43S)-44-(2-(3-acetyl-5-(2-methylpyrimidin-5-yl)-1H-indazol-1-yl)acetyl)-16-bromo-13-oxa-44,2,6-triaza-1(2,3)-pyridina-4(3,1)-bicyclo[3.1.0]hexanacyclotetradecaphan-10-ene-3,7-dione] | < 1 µM
27 | CC(=O)c1nn2c3cc(c(-c4cnc(C)nc4)cc13)OCCC/C=C\COC[C@@]13C[C@@H](C(=O)Nc4nc(Br)ccc4C)N(C(=O)C2)[C@@H]1C3 [Compound T-80] | < 1 µM
28 | CC(=O)c1nn2c3c(cc(-c4cnc(C)nc4)cc13)CC=CCCCC(=O)NC[C@@]1(F)C[C@@H](C(=O)Nc3nc(Br)ccc3C)N(C1)C(=O)C2 [Compound T-174] | < 1 µM
29 | CC(=O)c1nn(CC(=O)N2[C@H]3C[C@]4(C[C@@H]24)CN(C)CCCCC=CCc2ccc(Br)nc2NC3=O)c2c(C)cc(-c3cnc(C)nc3)cc12 [Compound T-60] | < 1 µM
